Source: patent US12466818B2, “Thienyl-aniline compounds for treatment of dermal disorders” (NFlection Therapeutics, Inc., priority 2018, dated 2025)

Tests used:
[1] = system: A375 cells; assay: Assay 2: A375 (BRAF) GI50 cell-based assay (Cell Titer-Glo); details: Homo sapiens, A-375, 72 hours
Method: (§1) Alternatively, the following procedure can be used to measure cell-based activity. Test compounds were dissolved in DMSO in 10 mM stock. Cell Titer-Glo® 2.0 Luminescent cell viability assay reagent was purchased from Promega (Madison, WI). A375 and HCT116 cell lines were purchased from American Type Culture Collection (Manassas, VA). For A375 cells, cell culture media was DMEM+10% FBS. For HCT116 cells, cell culture media was McCoy's 5A+10% FBS. All media were supplemented with 100 μg/mL of penicillin, and 100 μg/mL of streptomycin. Cultures were maintained at 37° C. in a humidified atmosphere of 5% CO2 and 95% air.
(§2) Test compounds were diluted in DMSO solution with 10-dose and 3-fold dilutions in a source plate starting at 10 mM. 25 nL of each test compound was delivered from the source plate to each well of the 384-well cell culture plates (T=Final) by Echo 550. 25 μL of culture medium containing 2000 of A375 or HCT116 cells was added to each of the wells in duplicates of the cell culture plates (T=0 and T=Final). 25 μL of Cell Titer Glo 2.0 reagent was added to each well of cell culture plate (T=0). The contents were mixed on an orbital shaker for 2 min and incubated at room temperature for 15 min to stabilize luminescent signal. Luminescence was recorded by Envision 2104 Multilabel Reader (PerkinElmer, Santa Clara, CA). The number of viable cells in culture was determined based on quantitation of the ATP present in each culture well. The cells in cell culture plate (T=Final) were incubated with the compounds at 37° C., 5% CO2 for 72 hours. 25 μL of Cell Titer Glo 2.0 reagent was added to each well. The contents were mixed on an orbital shaker for 2 min and incubated at room temperature for 15 min to stabilize luminescent signal. Luminescence was recorded by Envision 2104 Multilabel Reader (PerkinElmer, Santa Clara, CA). The number of viable cells in culture was determined based on quantitation of the ATP present in each culture well. The GI50 curves were plotted using the GraphPad Prism 4 program based on a sigmoidal dose-response equation Y=Bottom+(Top-Bottom)/(1+10^((Log EC50−X)*HillSlope)). All parameters in the equation were calculated by GraphPad Prism 4 program. […] Accordingly, GI50 is the value of 10^X, where X was calculated by the Curve Fitting Equation when Y=50 using Excel.
Assay 2 is the A375 (BRAF) GI50 (nM) cell-based assay as described in Example 39. A2 indicates an IC50 of less than or equal to 1 μM, and B2 indicates an IC50 of greater than 1 μM and less than or equal to 2 μM.

[2] = system: HCT116 cells; assay: Assay 3: HCT116 (Kras) GI50 assay (Cell Titer-Glo); format: cell-based; details: Homo sapiens, HCT-116, 72 hours
Method: as §1, §2
Assay 3 is the HCT116 (Kras) GI50 (nM) assay as described in Example 39. A3 indicates an IC50 of less than or equal to 5 μM, and B3 indicates an IC50 of greater than 5 μM and less than or equal to 10 μM.

[3] = Assay 4: liver S9 half-life stability assay; format: in vitro ADME; details: liver S9 fraction, pH 7.4; human liver S9, 1 μM test compound, NADPH
Method: Compounds can be assessed for metabolic stability in human skin by assessing their rate of disappearance from human S9 skin fraction. Similarly, compounds can be assessed for metabolic stability in human liver by assessing their rate of disappearance from human S9 liver fraction. The protocol below is used to assess the difference between skin and hepatic metabolism.
The assay was carried out in 96-well microtiter plates at 37° C. Reaction mixtures (25 μL) contained a final concentration of 1 μM test compound, 2 mg/mL liver or skin protein, and 1 mM NADPH in buffer (100 mM potassium phosphate, pH 7.4 buffer with 1 mM EDTA, 3 mM MgCl2). At each of the time points (0, 15, 30, and 60 minutes), 150 μL, of quench solution (100% acetonitrile with 0.1% formic acid) with internal standard was transferred to each well. […]
(§3) All samples were analyzed on LC/MS/MS using an AB Sciex API 4000 instrument, coupled to a Shimadzu LC-20AD LC Pump system. […]
(§4) The extent of metabolism was calculated as the disappearance of the test compound, compared to the 0-min control reaction incubations. Initial rates were calculated for the compound concentration and used to determine tin values and subsequently, the intrinsic clearance, CLint=(0.693)(1/t1/2 (min)) (mL incubation/mg of S9 protein). […]

[4] = Assay 6: liver microsomes half-life stability assay; format: in vitro ADME; details: pH 7.4; human liver microsomes, 1 μM test compound, NADPH
Method: Metabolic stability of testing compound can be evaluated using human liver microsomes to predict intrinsic clearance. Human liver microsomes are obtained from Corning Gentest.
The assay was carried out in 96-well microtiter plates at 37° C. Reaction mixtures (25 μL) contain a final concentration of 1 μM test compound, 0.5 mg/mL liver microsomes protein, and 1 mM NADPH in buffer (100 mM potassium phosphate, pH 7.4 buffer with 3 mM MgCl2). At each of the time points (0, 15, 30, and 60 minutes), 150 μL of quench solution (100% acetonitrile with 0.1% formic acid) with internal standard was transferred to each well. Verapamil was included as a positive control to verify assay performance. Plates were sealed and centrifuged at 4° C. for 15 minutes at 4000 rpm. The supernatant was transferred to fresh plates for LC/MS/MS analysis.
as §3
as §4, with “time incubation.” for “control reaction incubations.”, “t1/2” for “tin”, “(min))(g of liver/kg of body weight)(mL” for “(min)) (mL”, “microsomal protein)(45 mg of microsomal protein/g of liver weight).” for “S9 protein).”

GI50 [1]: ≤ 1000 nM
GI50 [2]: ≤ 5000 nM
half-life at 1 μM [3]: 50 to 100 min
half-life at 1 μM [4]: ≤ 50 min
Structure (SMILES): O=C1CCCc2c1sc(Nc1ccc(I)cc1F)c2C(=O)NOCCO [Compound 1.029, 2-((2-Fluoro-4-iodophenyl)amino)-N-(2-hydroxyethoxy)-7-oxo-4,5,6,7-tetrahydrobenzo[b]thiophene-3-carboxamide]
